Measurements published in patent US9790228B2, “Heterocyclic kinase inhibitors” (Intellikine LLC, priority 2008, dated 2017).
pEC50, pIC50: −log10 of the molar value. Read-outs that look alike come from different tables or passages of the source.

Key:
p110δ/p85α = p110δ/p85α (Homo sapiens (Human), UniProt O00329); experiment: PI3K δ inhibition assay (TLC lipid kinase or HTRF); format: biochemical
Description: (§1) Class I PI3-Ks can be either purchased (p110α/p85α, p110β/p85α, p110δ/p85α from Upstate, and p110γ from Sigma) or expressed as previously described (Knight et al., 2004). IC50 values are measured using either a standard TLC assay for lipid kinase activity (described below) or a high-throughput membrane capture assay. Kinase reactions are performed by preparing a reaction mixture containing kinase, inhibitor (2% DMSO final concentration), buffer (25 mM HEPES, pH 7.4, 10 mM MgCl2), and freshly sonicated phosphatidylinositol (100 μg/ml). Reactions are initiated by the addition of ATP containing 10 μCi of γ-32P-ATP to a final concentration 10 or 100 μM and allowed to proceed for 5 minutes at room temperature. For TLC analysis, reactions are then terminated by the addition of […] 1N HCl followed by 160 μl CHCl3:MeOH (1:1). The biphasic mixture is vortexed, briefly centrifuged, and the organic phase is transferred to a new tube using a gel loading pipette tip precoated with CHCl3. This extract is spotted on TLC plates and developed for 3-4 hours in a 65:35 solution of n-propanol:1M acetic acid. The TLC plates are then dried, exposed to a phosphorimager screen (Storm, Amersham), and quantitated. For each compound, kinase activity is measured at 10-12 inhibitor concentrations representing two-fold dilutions from the highest concentration tested (typically, 200 μM).
(§2) Other commercial kits or systems for assaying PI3-K activities are available. The commercially available kits or systems can be used to screen for inhibitors and/or agonists of PI3-Ks including but not limited to PI 3-Kinase α, β, δ, and γ. Anr exemplary system is PI3-Kinase (human) HTRF™ Assay from Upstate. […] Briefly, the assay is a time resolved FRET assay that indirectly measures PIP3 product formed by the activity of a PI3-K. The kinase reaction is performed in a microtitre plate (e.g., a 384 well microtitre plate). The total reaction volume is approximately 20 ul per well. In the first step, each well receives 2 ul of test compound in 20% dimethylsulphoxide resulting in a 2% DMSO final concentration. Next, approximately 14.5 ul of a kinase/PIP2 mixture (diluted in 1× reaction buffer) is added per well for a final concentration of 0.25-0.3 ug/ml kinase and 10 uM PIP2. The plate is sealed and incubated for 15 minutes at room temperature. To start the reaction, 3.5 ul of ATP (diluted in 1× reaction buffer) is added per well for a final concentration of 10 uM ATP. The plate is sealed and incubated for 1 hour at room temperature. The reaction is stopped by adding 5 ul of Stop Solution per well and then 5 ul of Detection Mix is added per well. The plate is sealed, incubated for 1 hour at room temperature, and then read on an appropriate plate reader. Data is analyzed and IC50s are generated using GraphPad Prism 5.

p110γ = p110γ (Homo sapiens (Human), UniProt P48736); experiment: PI3K γ inhibition assay (TLC lipid kinase or HTRF); format: biochemical
Sequence of p110γ (P48736 whole entry): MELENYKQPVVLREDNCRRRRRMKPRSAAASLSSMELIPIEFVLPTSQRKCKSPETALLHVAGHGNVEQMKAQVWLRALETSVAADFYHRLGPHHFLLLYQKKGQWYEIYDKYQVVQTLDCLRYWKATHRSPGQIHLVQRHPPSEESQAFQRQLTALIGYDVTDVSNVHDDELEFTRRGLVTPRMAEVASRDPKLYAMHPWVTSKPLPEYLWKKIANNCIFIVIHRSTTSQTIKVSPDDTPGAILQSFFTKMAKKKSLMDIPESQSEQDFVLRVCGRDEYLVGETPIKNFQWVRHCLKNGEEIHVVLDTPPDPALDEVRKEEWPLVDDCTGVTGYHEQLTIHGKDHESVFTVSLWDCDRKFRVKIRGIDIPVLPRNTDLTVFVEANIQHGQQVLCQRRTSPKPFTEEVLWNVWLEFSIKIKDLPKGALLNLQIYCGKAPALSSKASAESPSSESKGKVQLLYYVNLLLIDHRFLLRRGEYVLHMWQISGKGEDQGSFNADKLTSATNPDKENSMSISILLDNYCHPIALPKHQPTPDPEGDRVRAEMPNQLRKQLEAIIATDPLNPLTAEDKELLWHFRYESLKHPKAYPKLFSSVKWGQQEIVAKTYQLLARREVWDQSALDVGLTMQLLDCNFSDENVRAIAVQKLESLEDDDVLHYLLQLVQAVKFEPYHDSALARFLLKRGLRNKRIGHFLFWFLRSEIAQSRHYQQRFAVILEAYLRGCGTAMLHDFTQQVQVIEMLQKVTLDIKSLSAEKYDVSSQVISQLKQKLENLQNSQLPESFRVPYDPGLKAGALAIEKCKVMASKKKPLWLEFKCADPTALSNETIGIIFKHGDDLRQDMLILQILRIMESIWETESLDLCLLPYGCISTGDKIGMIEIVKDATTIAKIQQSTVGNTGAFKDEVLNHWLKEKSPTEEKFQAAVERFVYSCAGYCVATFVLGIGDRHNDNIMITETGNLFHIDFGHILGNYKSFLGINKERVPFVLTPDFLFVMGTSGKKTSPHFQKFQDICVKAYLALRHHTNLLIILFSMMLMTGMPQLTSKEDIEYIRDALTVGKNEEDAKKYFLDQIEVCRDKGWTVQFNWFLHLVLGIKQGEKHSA
Description: as §1, §2

p110α/p85α = p110α/p85α (Homo sapiens (Human), UniProt P42336); experiment: PI3K α inhibition assay (TLC lipid kinase or HTRF); format: biochemical
Sequence of p110α/p85α (P42336 whole entry): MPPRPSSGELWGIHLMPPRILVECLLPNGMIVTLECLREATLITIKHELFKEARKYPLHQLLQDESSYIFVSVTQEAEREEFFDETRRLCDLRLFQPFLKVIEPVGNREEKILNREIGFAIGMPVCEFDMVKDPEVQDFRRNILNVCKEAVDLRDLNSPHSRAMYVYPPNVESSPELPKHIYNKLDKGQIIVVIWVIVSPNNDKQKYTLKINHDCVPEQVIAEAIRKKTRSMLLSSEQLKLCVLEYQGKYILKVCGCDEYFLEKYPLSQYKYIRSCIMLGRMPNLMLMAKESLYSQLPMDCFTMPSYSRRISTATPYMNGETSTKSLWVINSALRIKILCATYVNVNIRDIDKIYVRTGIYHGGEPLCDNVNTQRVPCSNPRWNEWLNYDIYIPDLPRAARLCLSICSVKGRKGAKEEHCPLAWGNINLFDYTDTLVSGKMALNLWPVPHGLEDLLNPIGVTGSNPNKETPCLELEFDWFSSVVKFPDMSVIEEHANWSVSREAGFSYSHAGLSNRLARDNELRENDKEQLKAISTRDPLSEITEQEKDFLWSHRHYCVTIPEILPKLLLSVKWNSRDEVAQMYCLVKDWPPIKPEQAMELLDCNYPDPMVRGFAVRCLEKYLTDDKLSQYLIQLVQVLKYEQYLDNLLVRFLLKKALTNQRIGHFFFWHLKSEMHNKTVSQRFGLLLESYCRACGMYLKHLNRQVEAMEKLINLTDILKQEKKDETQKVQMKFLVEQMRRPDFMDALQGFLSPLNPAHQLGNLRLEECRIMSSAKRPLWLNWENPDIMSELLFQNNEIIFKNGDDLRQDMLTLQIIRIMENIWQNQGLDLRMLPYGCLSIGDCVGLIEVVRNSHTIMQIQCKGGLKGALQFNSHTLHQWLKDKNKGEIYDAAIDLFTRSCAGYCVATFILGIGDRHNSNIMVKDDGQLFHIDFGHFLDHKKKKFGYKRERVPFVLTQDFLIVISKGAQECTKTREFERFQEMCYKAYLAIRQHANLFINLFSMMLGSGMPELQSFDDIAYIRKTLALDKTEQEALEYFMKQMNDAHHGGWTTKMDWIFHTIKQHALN
Sequence of p110α/p85α (P27986 whole entry partner): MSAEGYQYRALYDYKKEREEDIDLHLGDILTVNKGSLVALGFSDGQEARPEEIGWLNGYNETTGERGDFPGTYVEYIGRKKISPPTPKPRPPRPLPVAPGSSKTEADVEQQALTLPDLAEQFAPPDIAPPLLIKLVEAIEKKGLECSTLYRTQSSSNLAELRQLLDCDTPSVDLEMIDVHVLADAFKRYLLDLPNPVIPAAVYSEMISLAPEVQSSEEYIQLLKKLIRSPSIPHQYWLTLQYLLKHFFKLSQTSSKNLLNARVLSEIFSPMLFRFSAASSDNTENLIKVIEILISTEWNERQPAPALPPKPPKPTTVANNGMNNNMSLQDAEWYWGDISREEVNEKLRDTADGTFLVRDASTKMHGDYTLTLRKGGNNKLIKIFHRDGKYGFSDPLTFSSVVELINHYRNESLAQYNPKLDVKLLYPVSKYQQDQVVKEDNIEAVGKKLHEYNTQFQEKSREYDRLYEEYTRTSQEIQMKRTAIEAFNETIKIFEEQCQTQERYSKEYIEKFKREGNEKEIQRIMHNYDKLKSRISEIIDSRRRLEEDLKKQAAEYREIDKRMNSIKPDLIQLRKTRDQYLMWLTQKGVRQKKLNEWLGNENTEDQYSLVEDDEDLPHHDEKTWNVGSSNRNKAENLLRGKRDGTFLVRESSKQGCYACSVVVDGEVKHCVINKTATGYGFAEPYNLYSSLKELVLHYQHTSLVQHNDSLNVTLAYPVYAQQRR
Description: as §1, §2

Balb/c splenic B cells = experiment: B cell activation and proliferation assay (Alamar Blue); format: cell-based, mouse
Description: The ability of one or more subject compounds to inhibit B cell activation and proliferation is determined according to standard procedures known in the art. For example, an in vitro cellular proliferation assay is established that measures the metabolic activity of live cells. The assay is performed in a 96 well microtiter plate using Alamar Blue reduction. Balb/c splenic B cells are purified over a Ficoll-Paque™ PLUS gradient followed by magnetic cell separation using a MACS B cell Isolation Kit (Miletenyi). Cells are plated in 90 ul at 50,000 cells/well in B Cell Media (RPMI+10% FBS+Penn/Strep+50 uM bME+5 mM HEPES). A compound disclosed herein is diluted in B Cell Media and added in a 10 ul volume. Plates are incubated for 30 min at 37 C and 5% CO2 (0.2% DMSO final concentration). A 50 ul B cell stimulation cocktail is then added containing either 10 ug/ml LPS or 5 ug/ml F(ab′)2 Donkey anti-mouse IgM plus 2 ng/ml recombinant mouse IL4 in B Cell Media. Plates are incubated for 72 hours at 37° C. and 5% CO2. A volume of 15 uL of Alamar Blue reagent is added to each well and plates are incubated for 5 hours at 37 C and 5% CO2. Alamar Blue fluoresce is read at 560Ex/590Em, and IC50 or EC50 values are calculated using GraphPad Prism 5.

p110β/p85α = p110β/p85α (Homo sapiens, UniProt P42338); experiment: PI3K β inhibition assay (TLC lipid kinase or HTRF); format: biochemical; settings: read-out: PI3K β IC50
Sequence of p110β/p85α (P42338 whole entry, looked up): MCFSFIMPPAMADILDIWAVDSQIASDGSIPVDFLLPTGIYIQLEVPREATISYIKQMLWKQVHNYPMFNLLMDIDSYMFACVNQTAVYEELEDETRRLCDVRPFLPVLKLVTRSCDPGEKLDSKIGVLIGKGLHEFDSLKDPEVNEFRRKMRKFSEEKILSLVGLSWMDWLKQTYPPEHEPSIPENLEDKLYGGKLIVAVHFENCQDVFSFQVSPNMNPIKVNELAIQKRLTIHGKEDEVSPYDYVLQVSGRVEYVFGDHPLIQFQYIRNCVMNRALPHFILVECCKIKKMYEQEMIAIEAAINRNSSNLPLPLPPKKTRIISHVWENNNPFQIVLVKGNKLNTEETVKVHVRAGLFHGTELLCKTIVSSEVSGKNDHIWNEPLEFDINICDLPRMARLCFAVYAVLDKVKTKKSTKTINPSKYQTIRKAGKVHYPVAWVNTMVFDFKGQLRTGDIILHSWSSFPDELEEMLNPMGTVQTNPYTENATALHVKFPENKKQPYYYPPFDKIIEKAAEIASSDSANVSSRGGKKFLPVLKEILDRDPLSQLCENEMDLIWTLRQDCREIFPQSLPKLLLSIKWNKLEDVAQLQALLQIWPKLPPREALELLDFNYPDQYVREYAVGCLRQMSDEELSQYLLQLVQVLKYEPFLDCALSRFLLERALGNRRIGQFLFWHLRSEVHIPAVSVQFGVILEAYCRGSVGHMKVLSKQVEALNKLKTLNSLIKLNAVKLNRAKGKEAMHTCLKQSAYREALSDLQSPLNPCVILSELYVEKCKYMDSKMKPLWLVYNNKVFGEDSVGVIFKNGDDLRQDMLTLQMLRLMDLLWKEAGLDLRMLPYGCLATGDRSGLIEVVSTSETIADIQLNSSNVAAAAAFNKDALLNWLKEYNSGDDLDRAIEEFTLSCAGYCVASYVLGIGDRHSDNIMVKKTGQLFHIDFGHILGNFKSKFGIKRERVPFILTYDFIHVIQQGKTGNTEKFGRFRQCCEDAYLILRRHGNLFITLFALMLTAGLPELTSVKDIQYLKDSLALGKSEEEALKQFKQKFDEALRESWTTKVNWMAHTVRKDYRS
Description: as §1, §2

Sequence of p110δ/p85α (O00329 whole entry): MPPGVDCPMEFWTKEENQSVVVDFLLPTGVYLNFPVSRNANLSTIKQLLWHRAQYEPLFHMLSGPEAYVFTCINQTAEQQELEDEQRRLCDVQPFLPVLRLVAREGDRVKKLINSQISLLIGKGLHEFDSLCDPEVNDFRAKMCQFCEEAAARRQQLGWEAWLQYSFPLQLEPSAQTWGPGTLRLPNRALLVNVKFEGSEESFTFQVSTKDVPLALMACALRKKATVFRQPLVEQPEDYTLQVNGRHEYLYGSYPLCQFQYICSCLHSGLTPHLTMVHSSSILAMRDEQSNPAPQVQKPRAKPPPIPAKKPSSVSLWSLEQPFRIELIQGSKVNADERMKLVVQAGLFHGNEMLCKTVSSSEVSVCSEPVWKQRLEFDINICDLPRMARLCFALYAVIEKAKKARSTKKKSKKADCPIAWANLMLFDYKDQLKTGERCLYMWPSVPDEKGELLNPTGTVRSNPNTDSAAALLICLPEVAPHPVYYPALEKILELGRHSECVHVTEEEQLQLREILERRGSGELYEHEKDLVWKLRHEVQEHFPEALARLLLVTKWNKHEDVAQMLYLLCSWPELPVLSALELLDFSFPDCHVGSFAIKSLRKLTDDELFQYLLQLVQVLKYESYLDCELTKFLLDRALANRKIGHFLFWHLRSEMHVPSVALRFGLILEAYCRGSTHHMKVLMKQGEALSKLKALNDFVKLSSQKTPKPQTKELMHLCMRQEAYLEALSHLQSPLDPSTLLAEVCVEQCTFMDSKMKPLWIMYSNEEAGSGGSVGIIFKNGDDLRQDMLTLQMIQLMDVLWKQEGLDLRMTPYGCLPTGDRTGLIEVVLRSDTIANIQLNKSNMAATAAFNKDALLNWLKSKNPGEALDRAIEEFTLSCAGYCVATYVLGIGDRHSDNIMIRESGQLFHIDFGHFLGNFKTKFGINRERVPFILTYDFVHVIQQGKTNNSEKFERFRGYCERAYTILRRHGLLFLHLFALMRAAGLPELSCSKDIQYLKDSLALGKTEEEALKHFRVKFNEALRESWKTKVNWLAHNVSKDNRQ
Sequence of p110δ/p85α (P27986 whole entry partner): as the sequence (P27986 whole entry partner) above

pIC50 (p110δ/p85α)	pIC50 (p110γ)	pIC50 (p110α/p85α)	pIC50 (p110β/p85α)	Structure (SMILES)	pEC50 (Balb/c splenic B cells; Mus musculus, B-cell)	pEC50 (Balb/c splenic B cells)
> 7.00	> 7.00	6.00 to 7.00	< 6.00	Nc1ncnc2ccc(-c3nn(Cc4cc5ccccc5nc4N4CCOCC4)c4ncnc(N)c34)cc12 [Compound 142]	> 7.00	
> 7.00	< 6.00	< 6.00	< 6.00	Cc1cccc2cc(Cn3nc(I)c4c(N)ncnc43)c(N3CCCC3)nc12 [Compound 6]	6.00 to 7.00	
> 7.00	< 6.00	< 6.00	> 7.00	CC(c1cc2ccccc2nc1N1CCN(C)CC1)n1nc(-c2cc(O)cc(F)c2)c2c(N)ncnc21 (stereo not drawn) [Compound 73]	> 7.00	
> 7.00	6.00 to 7.00	< 6.00	< 6.00	Nc1ncnc2c1c(-c1cc(O)cc(F)c1)nn2Cc1cc2ccccc2nc1N1CCOCC1 [Compound 63]	> 7.00	
> 7.00	6.00 to 7.00	> 7.00		CC(C)N(C)c1nc2ccccc2cc1Cn1nc(-c2ccc3nc(N)sc3c2)c2c(N)ncnc21 [Compound 154]	> 7.00	
> 7.00	> 7.00	< 6.00	< 6.00	Nc1nc2ccc(-c3nn(Cc4cc5ccccc5nc4-c4ccccc4C(F)(F)F)c4ncnc(N)c34)cc2[nH]1 [Compound 181]	6.00 to 7.00	
> 7.00	< 6.00	< 6.00		Nc1nc2cc(-c3nn(Cc4cc5ccccc5nc4-c4ccccc4C(F)(F)F)c4ncnc(N)c34)ccc2[nH]1 [Compound 155]	6.00 to 7.00	
> 7.00	6.00 to 7.00			Nc1ncnc2c1c(-c1cccc(O)c1)nn2Cc1cc2ccccc2nc1-c1ccccc1C(F)(F)F [Compound 46]	6.00 to 7.00	
> 7.00	> 7.00		< 6.00	Nc1ncnc2c1c(-c1cccc(O)c1)nn2Cc1cc2ccccc2nc1-c1ccccc1 [Compound 148]	> 7.00	
> 7.00	> 7.00		6.00 to 7.00	CC(=O)Nc1nc2ccc(-c3nn(Cc4cc5ccccc5nc4N(C)C(C)C)c4ncnc(N)c34)cc2s1 [Compound 151]	> 7.00	
> 7.00	> 7.00	< 6.00		Cc1ccccc1-c1nc2ccccc2cc1Cn1nc(-c2ccc3nc(N)[nH]c3c2)c2c(N)ncnc21 [Compound 182]	6.00 to 7.00	
> 7.00	6.00 to 7.00			Nc1ncnc2c1c(-c1cc(O)cc(F)c1)nn2Cc1cc2ccccc2nc1N1CCN(CCO)CC1 [Compound 34]	> 7.00	
> 7.00		6.00 to 7.00	< 6.00	Cc1nccn1-c1cc2ccccc2cc1Cn1nc(-c2ccc3nc(N)sc3c2)c2c(N)ncnc21 [Compound 175]	> 7.00	
> 7.00	> 7.00		< 6.00	CC(C)N(C)c1nc2ccccc2cc1Cn1nc(-c2cccc(O)c2)c2c(N)ncnc21 [Compound 150]	> 7.00	
> 7.00	> 7.00			Nc1ncnc2c1c(-c1cc(O)cc(F)c1)nn2Cc1cnc2ccccc2c1 [Compound 61]	> 7.00	
> 7.00		< 6.00	> 7.00	Nc1ncnc2c1c(-c1cc(O)cc(F)c1)nn2Cc1cc2ccccc2nc1CN1CCCC1 [Compound 174]	> 7.00	
> 7.00	< 6.00			CC(c1cc2ccccc2nc1N1CCCC1)n1nc(C#C[C@@H](C)O)c2c(N)ncnc21 (stereo partly drawn) [Compound 31]	6.00 to 7.00	

pIC50 (p110δ/p85α)	pIC50 (p110γ)	pIC50 (p110α/p85α)	pIC50 (p110β/p85α)	Structure (SMILES)	pEC50 (Balb/c splenic B cells; Mus musculus, B-cell)	pEC50 (Balb/c splenic B cells)
> 7.00		6.00 to 7.00	< 6.00	CC(=O)Nc1nc2ccc(-c3nn(Cc4cc5ccccc5nc4N4CCCC4C)c4ncnc(N)c34)cc2s1 (stereo not drawn) [Compound 186]	> 7.00	
> 7.00	> 7.00	6.00 to 7.00		Nc1ncnc2c1c(-c1ccc3cc[nH]c3c1)nn2Cc1cc2ccccc2nc1N1CCCC1 [Compound 147]	6.00 to 7.00	
< 6.00	< 6.00			CC(c1cc2ccccc2nc1-c1ccccc1)n1cnc2c(N)ncnc21 (stereo not drawn) [Compound 60]	< 6.00	
> 7.00	< 6.00	< 6.00		CN1CCN(c2ncccc2Cn2nc(-c3cc(O)cc(F)c3)c3c(N)ncnc32)CC1 [Compound 200]	6.00 to 7.00	
> 7.00	> 7.00	6.00 to 7.00		Nc1nc2ccc(-c3nn(Cc4cc5ccccc5nc4N4CCCC4)c4ncnc(N)c34)cc2s1 [Compound 196]		6.00 to 7.00
> 7.00		< 6.00	< 6.00	Cc1cccc2cc(Cn3nc(-c4cc(O)cc(F)c4)c4c(N)ncnc43)c(N3CCCC3)nc12 [Compound 9]	> 7.00	
> 7.00		> 7.00	6.00 to 7.00	CC1CCCN1c1nc2ccccc2cc1Cn1nc(-c2ccc3nc(N)sc3c2)c2c(N)ncnc21 (stereo not drawn) [Compound 187]	> 7.00	
> 7.00	< 6.00			Cc1ccccc1-c1nc2ccccc2n1CCn1nc(-c2cc(O)cc(F)c2)c2c(N)ncnc21 [Compound 127]	6.00 to 7.00	
> 7.00	> 7.00			Nc1ncnc2c1c(-c1cccc(O)c1)nn2Cc1cc2ccccc2nc1N1CCCC1 [Compound 47]	> 7.00	
> 7.00		6.00 to 7.00	< 6.00	Cc1cn(-c2nc3ccccc3cc2Cn2nc(-c3ccc4nc(N)sc4c3)c3c(N)ncnc32)cn1 [Compound 176]	> 7.00	
> 7.00	> 7.00			CC(c1cc2ccccc2nc1N1CCCC1)n1nc(-c2cc(O)cc(F)c2)c2c(N)ncnc21 (stereo not drawn) [Compound 30]	> 7.00	
> 7.00	6.00 to 7.00			CC(c1cc2ccccc2nc1N1CCCC1)n1nc(-c2cccc(O)c2)c2c(N)ncnc21 (stereo not drawn) [Compound 32]	> 7.00	
> 7.00	> 7.00	> 7.00		CC(=O)Nc1nc2ccc(-c3nn(Cc4cc5ccccc5nc4N4CCOCC4)c4ncnc(N)c34)cc2s1 [Compound 128]	> 7.00	
6.00 to 7.00	< 6.00			CC(C)Nc1nc2ccccc2cc1Cn1nc(-c2cc(O)cc(F)c2)c2c(N)ncnc21 [Compound 25]	< 6.00	
> 7.00	< 6.00			NCc1ccc(F)cc1-c1nc2ccccc2cc1Cn1nc(-c2cc(O)cc(F)c2)c2c(N)ncnc21 [Compound 26]	> 7.00	
6.00 to 7.00	< 6.00			C[C@@H](O)C#Cc1nn(Cc2cc3ccccc3nc2-c2ccccc2C(F)(F)F)c2ncnc(N)c12 [Compound 49]	6.00 to 7.00	
> 7.00		< 6.00	< 6.00	Cc1cccc2cc(Cn3nc(-c4cccc(O)c4)c4c(N)ncnc43)c(N3CCCC3)nc12 [Compound 10]	6.00 to 7.00	
